Assay results reported in patent publication US6603046B1, “Bis-aromatic a,β-unsaturated ketones” (Lica Pharmaceuticals A/S, priority 1992, dated 2003).
In brackets after ≈: the same amount, converted by molar mass. Read-outs that look alike come from different tables or passages of the source.

Assays:
[1] = tested on: L. major amastigotes in U937 cells; test: L. major amastigotes in U937 cells, microscopic counting (Example 7); assay type: cell-based, Leishmania major
M. intracellular = test: Radiometric MIC (Example 19); assay type: cell-based; conditions: n=9
Bacillus subtilis = test: MIC, macrodilution (Example 17); assay type: cell-based; conditions: 1 strain
Mycobacteria = assay type: cell-based
[2] = tested on: L. major WHO pentostam resistant strain promastigotes; test: Pentostam resistant L. major promastigotes, 3H-thymidine uptake (Example 10); conditions: 5 μg/ml
human lymphocytes = test: Lymphocyte Proliferation Assay, 3H-thymidine incorporation (Example 13); conditions: Homo sapiens, Lymphocyte
[3] = Toxicity study in mice, i.v. and oral (Example 21); assay type: in vivo, NMRI female mice
Procedure: Drug. Licochalcone A solution was prepared as follows: 20 mg of licochalcone A was dissolved in 0.2 ml of ethanol. 60 mg of melted polyoxyethylene (23)lauryletherb (Brij 35) was added. 1.7 ml of phosphate buffer was then added while stirring on a warm plate. pH in the licochalcone A solution was adjusted to 7.3.
Mice. NMRI female mice (30-35 gram) in groups of 4 each were used for these studies. For the oral route experiment, the animals were fasted for 16 hrs with access to drinking water. Licochalcone A was suspended in 2% carboxymethylcellulose in water. This suspension was available for the mice in an amount of 0.1 ml per 10 gram body weight. The animals were observed every day for 7 days. For the intravenous injection experiment the animals were not fasted. Licochalcone A in solution (20 mg/ml) prepared as mentioned above was injected intravenously 0.1 ml per 10 gram body weight over a period of one hour and again 24 hrs later.

[4] = tested on: L. donovani promastigotes; test: In vitro growth of L. donovani promastigotes, 3H-thymidine uptake (Example 4); assay type: cell-based; conditions: Leishmania donovani; for inhibition at 1 µg/mL: 1 μg/ml; for inhibition at 2 µg/mL: 2 μg/ml; for inhibition at 5 µg/mL: 5 μg/ml; for inhibition at 10 µg/mL: 10 μg/ml; for inhibition at 20 µg/mL: 20 μg/ml
L. major promastigotes [5] = test: Electron microscopy of L. major promastigotes (Example 11); assay type: cell-based, Leishmania major; conditions: for diameter of mitochondria, Maximum (mean) / diameter of mitochondria, Minimum (mean): 24 hours
human PMN = test: Zymosan-enhanced chemiluminescence, PMN; assay type: cell-based; conditions: read-out: percentage inhibition of chemiluminescence response to opsonized zymosan (mean ± SEM)
Procedure: Chemiluminescence. Monocytes were prepared from heparinized blood by metrizoate sodium-Ficoll (the same as lymphocyte proliferation). Polymorphonuclear leucocytes (PMN) were prepared from heparinized blood by dextran sedimentation and metrizoate sodium-Ficoll separation. Remaining erythrocytes were removed by hypotonic lysis. A zymosan-enhanced chemiluminescence assay was used. The assay was performed in a total volume of 5.5 ml at ambient temperature in glass scintillation vials. A Beckman L 8000 scintillation counter (placed under air-conditioned, thermostat controlled, 21±1° C. conditions) was used in the out-of-coincidence mode A 1.1 ml portion of PMN or monocyte suspension (1×10^6 cells per ml) was pre-incubated with 1.1 ml of various concentrations of licochalcone A for 30 min at 37° C. in a rotor at 20 rpm Luminol (5-amino-2,3-dihydro-1,4-phatalazinedione) obtained from Sigma Chemical Co., St Louis, Mo., U.S.A., was maintained as a stock solution of 10 mg/ml in NaOH (0.1 N) and diluted in Krebs-Ringer solution immediately before use. Each vial contained 5×10^5 pre-incubated PMN or monocyte, 4 mg of opsonized zymosan (Sigma), 50 μl of luminol solution, and 4.45 ml of Krebs-Ringer solution containing 5 mM glucose. The final concentration of luminol in the assay mixture was 5×10^−8m.

L. major promastigotes [6] = test: L. major promastigotes from 4-days cultures, 3H-thymidine uptake (Examples 5, 14); assay type: cell-based, Leishmania major; conditions: Leishmania major, Table 14.1, read-out: percentage inhibition of promastigotes (upper figure)
Summary of the method: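 Promastigotes harvested on day 4 of culture were exposed to compound, then pulsed with 100 μC 3H-thymidine for a further 18 h. Cells were collected on filter paper, washed, and incorporated radioactivity counted by scintillation.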

L. gormanii = test: microbe, parasite or virus in culture; assay type: cell-based; conditions: Fluoribacter gormanii
[7] = 3 days after infection, 0.5 μg/ml
[8] = 3 days after infection, 1 μg/ml
[9] = 6 days after infection, 0.5 μg/ml
[10] = 6 days after infection, 1 μg/ml
[11] = read-out: inhibition of lymphocytes (lower figure)
[12] = read-out: percentage inhibition of lymphocyte proliferation response ±SEM
[13] = read-out: percentage inhibition of 3H-thymidine uptake (mean ± SEM), 3-day culture
[14] = read-out: percentage inhibition of 3H-thymidine uptake (mean ± SEM), 6-day culture

Question: For `C=CC(C)(C)c1cc(/C=C/C(=O)c2ccc(O)cc2)c(OC)cc1O` [Licochalcone A, licochalcone A], which “% of amast.” value [1, 7] is on record?
Answer: 96.6%

Question: And the “% of infec. cells” value [1, 7]?
Answer: 28.0%

Question: And the amast. per cell [1, 7]?
Answer: 2.3

Question: What about the proma per cell [1, 7] of the same molecule?
Answer: 0.1

Question: And the total amast. [1, 7]?
Answer: 65.0 ×10^6

Question: And the total proma. [1, 7]?
Answer: 2.3 ×10^6

Question: What about the “% of amast.” value [1, 8] of the same molecule?
Answer: 91.2%

Question: What about the “% of infec. cells” value [1, 8] of the same molecule?
Answer: 19.0%

Question: What about the amast. per cell [1, 8] of the same molecule?
Answer: 2.0

Question: What about the proma per cell [1, 8] of the same molecule?
Answer: 0.2

Question: What about the total amast. [1, 8] of the same molecule?
Answer: 38.3 ×10^6

Question: What about the total proma. [1, 8] of the same molecule?
Answer: 3.7 ×10^6

Question: What about the “% of infec. cells” value ([1]; 3 days after infection, 5 μg/ml) of the same molecule?
Answer: 0%

Question: And the “% of infec. cells” value ([1]; 3 days after infection, 10 μg/ml)?
Answer: 0%

Question: What about the “% of amast.” value [1, 9] of the same molecule?
Answer: 100%

Question: What about the “% of infec. cells” value [1, 9] of the same molecule?
Answer: 13.7%

Question: What about the amast. per cell [1, 9] of the same molecule?
Answer: 3.1

Question: And the proma per cell [1, 9]?
Answer: 0

Question: And the total amast. [1, 9]?
Answer: 42.0 ×10^6

Question: And the total proma. [1, 9]?
Answer: 0 ×10^6

Question: What about the “% of amast.” value [1, 10] of the same molecule?
Answer: 100%

Question: What about the “% of infec. cells” value [1, 10] of the same molecule?
Answer: 3.0%

Question: What about the amast. per cell [1, 10] of the same molecule?
Answer: 1.8

Question: And the proma per cell [1, 10]?
Answer: 0

Question: And the total amast. [1, 10]?
Answer: 5.3 ×10^6

Question: And the total proma. [1, 10]?
Answer: 0 ×10^6

Question: What about the “% of infec. cells” value ([1]; 6 days after infection, 5 μg/ml) of the same molecule?
Answer: 0%

Question: And the “% of infec. cells” value ([1]; 6 days after infection, 10 μg/ml)?
Answer: 0%

Question: And the meanMIC (M. intracellular)?
Answer: 50.0 µg/mL

Question: What about the rangeMIC (M. intracellular) of the same molecule?
Answer: 20 to 80 µg/mL

Question: What about the MIC (Bacillus subtilis) of the same molecule?
Answer: 4 µg/mL (≈ 11.8 µM)

Question: And the “Species with MIC ≦ 20 μg/ml” value (Mycobacteria)?
Answer: M. kansasii and M. xenophii and M. marinum and M. tuberculosis and M. bovis and BCG

Question: And the “growth of pentostam resistant parasites” value [2]?
Answer: completely inhibited the growth

Question: What about the inhibition at 0.5 µg/mL (human lymphocytes; [11]) of the same molecule?
Answer: 4.7%

Question: And the inhibition at 1 µg/mL (human lymphocytes; [11])?
Answer: 7.7%

Question: And the inhibition at 5 µg/mL (human lymphocytes; [11])?
Answer: 20.8%

Question: What about the inhibition at 10 µg/mL (human lymphocytes; [11]) of the same molecule?
Answer: 39.7%

Question: And the inhibition at 1 µg/mL (human lymphocytes; [12])?
Answer: 4.7 ± 5.6%

Question: And the inhibition at 2 µg/mL (human lymphocytes; [12])?
Answer: 7.8 ± 5.7%

Question: What about the inhibition at 5 µg/mL (human lymphocytes; [12]) of the same molecule?
Answer: 20.8 ± 4.8%

Question: And the inhibition at 10 µg/mL (human lymphocytes; [12])?
Answer: 39.7 ± 5.4%

Question: What about the inhibition at 20 µg/mL (human lymphocytes; [12]) of the same molecule?
Answer: 65.3 ± 7%

Question: What about the “No. dead (after 7 days)” value ([3]; 1000 mg/kg perorally, groups of 4) of the same molecule?
Answer: 0 (after 7 days)

Question: What about the “No. dead (after 1 hr)” value ([3]; i.v. 20 mg/kg, groups of 4) of the same molecule?
Answer: 0

Question: And the “No. dead (after 1 hr)” value ([3]; i.v. 50 mg/kg, groups of 4)?
Answer: 1

Question: What about the “No. dead (after 1 hr)” value ([3]; i.v. 60 mg/kg, groups of 4) of the same molecule?
Answer: 4

Question: And the “No. dead (after 1 hr)” value ([3]; i.v. 100 mg/kg, groups of 4)?
Answer: 4

Question: And the “Approximate LD50 i.v.” value ([3]; mice)?
Answer: ~55 mg per kg body weight

Question: And the inhibition at 1 µg/mL [4, 13]?
Answer: 15.2 ± 14.5%

Question: And the inhibition at 2 µg/mL [4, 13]?
Answer: 23.5 ± 16.4%

Question: And the inhibition at 5 µg/mL [4, 13]?
Answer: 53.7 ± 14%

Question: And the inhibition at 10 µg/mL [4, 13]?
Answer: 81.5 ± 8%

Question: What about the inhibition at 20 µg/mL [4, 13] of the same molecule?
Answer: 96.7 ± 0.8%

Question: What about the inhibition at 1 µg/mL [4, 14] of the same molecule?
Answer: 30.4 ± 23.8%

Question: And the inhibition at 2 µg/mL [4, 14]?
Answer: 42.2 ± 16.6%

Question: What about the inhibition at 5 µg/mL [4, 14] of the same molecule?
Answer: 70.1 ± 12.4%

Question: What about the inhibition at 10 µg/mL [4, 14] of the same molecule?
Answer: 91.9 ± 3.1%

Question: And the inhibition at 20 µg/mL [4, 14]?
Answer: 98.3 ± 0.8%

Question: And the “morphological changes of promastigotes” value (L. major promastigotes [5]; 1 μg/ml)?
Answer: no morphological changes

Question: What about the “diameter of mitochondria, Maximum (mean)” value (L. major promastigotes [5]; 1 μg/ml) of the same molecule?
Answer: 203 nm

Question: What about the “diameter of mitochondria, Minimum (mean)” value (L. major promastigotes [5]; 1 μg/ml) of the same molecule?
Answer: 104 nm

Question: What about the “diameter of mitochondria, Maximum (mean)” value (L. major promastigotes [5]; 5 μg/ml) of the same molecule?
Answer: 548 nm

Question: And the “diameter of mitochondria, Minimum (mean)” value (L. major promastigotes [5]; 5 μg/ml)?
Answer: 165 nm

Question: What about the “percentage of L. major showing cytoplasmic granules” value (L. major promastigotes [5]; 5 μg/ml, control 50%) of the same molecule?
Answer: 70%

Question: And the “diameter of mitochondria, Maximum (mean)” value (L. major promastigotes [5]; 10 μg/ml)?
Answer: 1043 nm

Question: And the “diameter of mitochondria, Minimum (mean)” value (L. major promastigotes [5]; 10 μg/ml)?
Answer: 294 nm

Question: And the inhibition at 1 µg/mL (human PMN; 1 μg/ml)?
Answer: 2.1 ± 3.3%

Question: What about the inhibition at 2 µg/mL (human PMN; 2 μg/ml) of the same molecule?
Answer: 10.3 ± 3.3%

Question: What about the inhibition at 5 µg/mL (human PMN; 5 μg/ml) of the same molecule?
Answer: 18.9 ± 3.7%

Question: And the inhibition at 10 µg/mL (human PMN; 10 μg/ml)?
Answer: 29.7 ± 4.8%

Question: And the inhibition at 20 µg/mL (human PMN; 20 μg/ml)?
Answer: 47 ± 4.3%

Question: What about the inhibition at 0.5 µg/mL (L. major promastigotes [6]; 0.5 μg/ml) of the same molecule?
Answer: 12%

Question: And the inhibition at 1 µg/mL (L. major promastigotes [6]; 1 μg/ml)?
Answer: 25%

Question: And the inhibition at 5 µg/mL (L. major promastigotes [6]; 5 μg/ml)?
Answer: 64%

Question: And the inhibition at 10 µg/mL (L. major promastigotes [6]; 10 μg/ml)?
Answer: 92%

Question: And the MIC (L. gormanii)?
Answer: 500 µg/mL (≈ 1480 µM)
